The record followed here is patent US10889581B2, “Cyclopropyl fused thiazine derivatives as beta-secretase inhibitors and methods of use” (AMGEN INC., priority 2016, dated 2021).

Assay [1] has as its target T1, BACE1 (Homo sapiens (Human), UniProt P56817). Description: In vitro enzymatic BACE1 FRET assay. The following applies: pH 4.5, read-out: BACE1 Enzyme IC50. The class given is biochemical.
Target sequence in this assay (P56817 46-501): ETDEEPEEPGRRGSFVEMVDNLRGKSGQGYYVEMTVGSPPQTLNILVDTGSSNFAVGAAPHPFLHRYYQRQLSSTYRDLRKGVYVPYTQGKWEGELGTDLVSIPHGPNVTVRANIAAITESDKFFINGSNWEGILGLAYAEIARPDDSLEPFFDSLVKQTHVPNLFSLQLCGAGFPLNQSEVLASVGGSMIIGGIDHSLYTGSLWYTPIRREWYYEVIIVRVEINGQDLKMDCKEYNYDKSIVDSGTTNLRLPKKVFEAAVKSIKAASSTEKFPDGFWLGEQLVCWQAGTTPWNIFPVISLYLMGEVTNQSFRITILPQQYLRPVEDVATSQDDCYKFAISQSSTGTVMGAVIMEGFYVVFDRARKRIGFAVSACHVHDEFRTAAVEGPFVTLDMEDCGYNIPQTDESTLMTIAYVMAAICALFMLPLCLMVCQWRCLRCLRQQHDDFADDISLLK
Assay [2] concerns the target Recombinant CatD (Homo sapiens (Human), UniProt P07339). Description: In vitro enzymatic Cathepsin D (CatD) FRET assay. Conditions: pH 3.5, read-out: Cat D Enzyme IC50. The class given is biochemical.
Assay [3] concerns the target T1, BACE1. Description: In vitro BACE1 cell-based assay (Aβ40 in conditioned medium of cells stably expressing APP, HTRF). As for the experimental part: In Vitro BACE1 Cell-Based Assay
The cell-based assay measures inhibition or reduction of Aβ40 in conditioned medium of test compound treated cells expressing amyloid precursor protein. Cells stably expressing Amyloid Precursor Protein (APP) were plated at a density of 45K cells/well in 384 well plates (Corning/BioCoat 354663). The test compounds were then added to cells in 22-point dose response concentrations with the starting concentration being 62.5 μM. The compounds were diluted from stock solutions in DMSO and the final DMSO concentration of the test compounds on cells was 0.625%. The cells were cultivated overnight at 37° C. and 5% CO2 in DMEM supplemented with 10% FBS. After 24 h of incubation with the test compounds, the conditioned media was collected and the Aβ40 levels were determined using HTRF (Homogeneous Time Resolved Fluorescence). The IC50 of the compound was calculated from the percent of control or percent inhibition of Aβ40 as a function of the concentration of the test compound.
The HTRF to detect Aβ40 was performed in 384 well plates (Costar 3658). The antibody pair that were used to detect Aβ40 from cell supernatants were ConfAb40 antibody (Amgen in-house) and biotinylated 6E10 (BIOLEGEND). As an alternative to ConfAb40, a commercially available antibody, Anti-beta Amyloid 1-40 antibody [BDI350] from Abcam, Cambridge, Mass. 02139-1517 (Product code: ab20068), may be used in this assay. The concentrations were 0.35 μg/mL of ConfAb40 antibody and 1.33 μg/mL of 6E10-biotinylated antibody, as well as 4.5 μg/mL of Streptavidin Allophycocyanin Conjugate (ThermoFisher Scientific) in HTRF Buffer ([…], 1% BSA, 0.5% Tween 20).
The conditioned media was incubated with above antibodies and Streptavidin Allophycocyanin Conjugate for 30-60 minutes at 23° C. The final readout was performed on Envision from PerkinElmer.
Target sequence in this assay (P56817 46-501, species assumed): as the sequence (P56817 46-501) above

Assay [4] addresses human recombinant BACE2 (Homo sapiens (Human), UniProt Q9Y5Z0). Description: In vitro enzymatic BACE2 FRET assay. Conditions: pH 4.5, read-out: BACE2 Enzyme IC50. The class given is biochemical.
[5] abbreviates: Aβ40, 24 h incubation, read-out: BACE1 Cell IC50.

In general, IC50 refers to the concentration needed to halve the response being measured.

Chain of Recombinant CatD (P07339 65-412): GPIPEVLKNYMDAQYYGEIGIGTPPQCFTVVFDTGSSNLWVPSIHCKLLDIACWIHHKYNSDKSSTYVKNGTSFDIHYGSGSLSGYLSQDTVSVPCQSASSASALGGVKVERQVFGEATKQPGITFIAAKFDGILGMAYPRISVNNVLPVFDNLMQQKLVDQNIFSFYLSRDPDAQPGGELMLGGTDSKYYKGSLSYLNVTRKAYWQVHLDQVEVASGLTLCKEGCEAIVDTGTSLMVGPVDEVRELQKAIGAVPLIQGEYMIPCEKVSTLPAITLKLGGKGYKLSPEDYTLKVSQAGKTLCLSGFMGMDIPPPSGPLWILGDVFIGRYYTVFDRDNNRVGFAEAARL
Chain of human recombinant BACE2 (Q9Y5Z0 63-518): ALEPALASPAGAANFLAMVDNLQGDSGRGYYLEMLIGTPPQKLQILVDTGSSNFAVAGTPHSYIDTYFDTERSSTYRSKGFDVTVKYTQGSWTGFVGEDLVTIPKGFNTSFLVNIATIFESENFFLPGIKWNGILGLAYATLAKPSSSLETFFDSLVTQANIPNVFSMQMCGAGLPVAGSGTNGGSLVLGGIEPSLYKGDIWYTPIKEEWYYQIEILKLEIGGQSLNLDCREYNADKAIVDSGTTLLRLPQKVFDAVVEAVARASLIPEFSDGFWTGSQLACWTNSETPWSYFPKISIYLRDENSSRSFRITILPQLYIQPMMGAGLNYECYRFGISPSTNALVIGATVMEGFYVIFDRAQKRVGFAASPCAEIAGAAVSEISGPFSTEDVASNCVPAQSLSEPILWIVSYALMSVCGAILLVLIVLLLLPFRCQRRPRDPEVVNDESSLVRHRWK

On to `N#Cc1ccc(C#Cc2ccc(F)c([C@@]3(CF)N=C(N)S[C@@]4(CO)C[C@H]43)c2)nc1` [Example 100, 6-((3-((1S,5S,6S)-3-amino-5-(fluoromethyl)-1-(hydroxymethyl)-2-thia-4-azabicyclo[4.1.0]hept-3-en-5-yl)-4-fluorophenyl)ethynyl)nicotinonitrile], for which the IC50 in assay [1] came to 0.08 µM; in assay [2] it was 4870 µM; in assay [3] (setting [5]), 0.129 µM; in assay [4], 4.55 µM.

For `N#Cc1ccc(C#Cc2ccc(F)c([C@@]3(CF)N=C(N)S[C@@]4(CF)C[C@H]43)c2)nc1` [Example 101, 6-((3-((1S,5S,6S)-3-amino-1,5-bis(fluoromethyl)-2-thia-4-azabicyclo[4.1.0]hept-3-en-5-yl)-4-fluorophenyl)ethynyl)nicotinonitrile], the IC50 was 0.104 µM in assay [1], 2860 µM in assay [2], 0.271 µM in assay [3] (setting [5]) and 6.04 µM in assay [4].

For the compound `NC1=N[C@](CF)(c2cc(C#Cc3ccc(Cl)cn3)ccc2F)[C@@H]2C[C@]2(CF)S1` [Example 102, (1S,5S,6S)-5-(5-((5-chloropyridin-2-yl)ethynyl)-2-fluorophenyl)-1,5-bis(fluoromethyl)-2-thia-4-azabicyclo[4.1.0]hept-3-en-3-amine], the IC50 stood at 0.182 µM in assay [1], 673 µM in assay [2], 0.685 µM in assay [3] (setting [5]) and 0.445 µM in assay [4].

For `N#Cc1cnc(C#Cc2ccc(F)c([C@@]3(CF)N=C(N)S[C@@]4(CF)C[C@H]43)c2)cn1` [Example 103, 5-((3-((1S,5S,6S)-3-amino-1,5-bis(fluoromethyl)-2-thia-4-azabicyclo[4.1.0]hept-3-en-5-yl)-4-fluorophenyl)ethynyl)pyrazine-2-carbonitrile], the IC50 in assay [1] worked out at 0.086 µM; in assay [2], 229 µM; in assay [3] (setting [5]), 3.91 µM; in assay [4], 1.59 µM.

For the compound `Cc1cc(C#N)cnc1C#Cc1ccc(F)c([C@@]2(CF)N=C(N)S[C@@]3(CF)C[C@H]32)c1` [Example 104, 6-((3-((1S,5S,6S)-3-amino-1,5-bis(fluoromethyl)-2-thia-4-azabicyclo[4.1.0]hept-3-en-5-yl)-4-fluorophenyl)ethynyl)-5-methylnicotinonitrile], the IC50 came out at 0.038 µM in assay [1], 1300 µM in assay [2], 0.231 µM in assay [3] (setting [5]) and 2.28 µM in assay [4].

On to `CC#CCOc1ccc(C#Cc2ccc(F)c([C@@]3(CF)N=C(N)S[C@@]4(CF)C[C@H]43)c2)nc1` [Example 105, (1S,5S,6S)-5-(5-((5-(but-2-yn-1-yloxy)pyridin-2-yl)ethynyl)-2-fluorophenyl)-1,5-bis(fluoromethyl)-2-thia-4-azabicyclo[4.1.0]hept-3-en-3-amine], for which the IC50 was determined as 0.096 µM in assay [1], 500 µM in assay [2], 0.746 µM in assay [3] (setting [5]) and 10.3 µM in assay [4].

`N#CC[C@]12C[C@H]1[C@@](CF)(c1cc(C#Cc3ccc(C#N)cn3)ccc1F)N=C(N)S2` [Example 106, 6-((3-((1R,5S,6S)-3-amino-1-(cyanomethyl)-5-(fluoromethyl)-2-thia-4-azabicyclo[4.1.0]hept-3-en-5-yl)-4-fluorophenyl)ethynyl)nicotinonitrile]: the IC50 in assay [1] came out at 0.084 µM; in assay [2], 614 µM; in assay [3] (setting [5]) it was 0.623 µM; in assay [4] it was 4.73 µM.

On to `N#C/C=C/[C@]12C[C@H]1[C@@](CF)(c1cc(C#Cc3ccc(C#N)cn3)ccc1F)N=C(N)S2` [Example 107, 6-((3-((1R,5S,6S)-3-amino-1-((E)-2-cyanovinyl)-5-(fluoromethyl)-2-thia-4-azabicyclo[4.1.0]hept-3-en-5-yl)-4-fluorophenyl)ethynyl)nicotinonitrile], for which the IC50 turned out to be 0.047 µM in assay [1], 239 µM in assay [2], 0.372 µM in assay [3] (setting [5]) and 2.55 µM in assay [4].

`NC1=N[C@](CF)(c2cc(C#Cc3ccc(OCc4ncco4)cn3)ccc2F)[C@@H]2C[C@]2(CF)S1` [Example 108, (1S,5S,6S)-5-(2-fluoro-5-((5-(oxazol-2-ylmethoxy)pyridin-2-yl)ethynyl)phenyl)-1,5-bis(fluoromethyl)-2-thia-4-azabicyclo[4.1.0]hept-3-en-3-amine]: the IC50 in assay [1] was 0.735 µM; in assay [2], 784 µM; in assay [3] (setting [5]) it was 2.02 µM; in assay [4] it was 14.1 µM.

Consider `N#Cc1cnc(C#Cc2ccc(F)c([C@@]3(CF)N=C(N)S[C@@]4(CF)C[C@H]43)c2)s1` [Example 109, 2-((3-((1S,5S,6S)-3-amino-1,5-bis(fluoromethyl)-2-thia-4-azabicyclo[4.1.0]hept-3-en-5-yl)-4-fluorophenyl)ethynyl)thiazole-5-carbonitrile], for which the IC50 was found to be 0.057 µM in assay [1], 705 µM in assay [2], 1.11 µM in assay [3] (setting [5]) and 0.092 µM in assay [4].

For `C[C@]1(c2cc(C#Cc3ccc(C#N)cn3)ccc2F)N=C(N)S[C@]2(CO)[C@H]1C2(F)F` [Example 110, 6-((3-((1S,5S,6R)-3-amino-7,7-difluoro-1-(hydroxymethyl)-5-methyl-2-thia-4-azabicyclo[4.1.0]hept-3-en-5-yl)-4-fluorophenyl)ethynyl)nicotinonitrile], the IC50 came to 0.047 µM in assay [1], 1160 µM in assay [2], 0.355 µM in assay [3] (setting [5]) and 2.08 µM in assay [4].

`N#Cc1ccc(C#Cc2ccc(F)c([C@@]3(CF)N=C(N)S[C@@]4(/C=C/C(=O)N5CCOCC5)C[C@H]43)c2)nc1` [Example 111, 6-((3-((1R,5S,6S)-3-amino-5-(fluoromethyl)-1-((E)-3-morpholino-3-oxoprop-1-en-1-yl)-2-thia-4-azabicyclo[4.1.0]hept-3-en-5-yl)-4-fluorophenyl)ethynyl)nicotinonitrile]: the IC50 is 0.019 µM in assay [1], 300 µM in assay [2], 0.072 µM in assay [3] (setting [5]) and 0.405 µM in assay [4].

For the compound `CN(C)C(=O)/C=C/[C@]12C[C@H]1[C@@](CF)(c1cc(C#Cc3ccc(C#N)cn3)ccc1F)N=C(N)S2` [Example 112, (E)-3-((1R,5S,6S)-3-amino-5-(5-((5-cyanopyridin-2-yl)ethynyl)-2-fluorophenyl)-5-(fluoromethyl)-2-thia-4-azabicyclo[4.1.0]hept-3-en-1-yl)-N,N-dimethylacrylamide], the IC50 in assay [1] is 0.025 µM; in assay [2], 176 µM; in assay [3] (setting [5]) it was 0.139 µM; in assay [4] it was 1.59 µM.

Consider `N#Cc1ccc(C#Cc2ccc(F)c([C@@]3(CF)N=C(N)S[C@@]4(CC(N)=O)C[C@H]43)c2)nc1` [Example 113, 2-((1R,5S,6S)-3-amino-5-(5-((5-cyanopyridin-2-yl)ethynyl)-2-fluorophenyl)-5-(fluoromethyl)-2-thia-4-azabicyclo[4.1.0]hept-3-en-1-yl)acetamide], for which the IC50 in assay [1] was found to be 0.116 µM; in assay [2], 1420 µM; in assay [3] (setting [5]) it was 0.153 µM; in assay [4], 3.76 µM.

Regarding `COC[C@]12CC1[C@@](C)(c1cc(C#Cc3ncc(Cl)cc3C)ccc1F)N=C(N)S2` (stereo partly drawn) [Example 134, (1S,5S)-5-(5-((5-chloro-3-methylpyridin-2-yl)ethynyl)-2-fluorophenyl)-1-(methoxymethyl)-5-methyl-2-thia-4-azabicyclo[4.1.0]hept-3-en-3-amine], in assay [3], the IC50 was determined as 0.951 µM.
